Measured values as given in patent US20240294465A1, “NOVEL ANTI-FIBROTIC DRUGS” (HELMHOLTZ ZENTRUM MUNCHEN - DEUTSCHES FORSCHUNGSZENTRUM FUR …, priority 2021, published 2024).

How the values were obtained:
[1] = system: ECM deposition of collagen I, collagen V and fibulin 1 by phLFs+TGFβ1; test: 3D ECM deposition assay (collagen I, collagen V, fibulin 1), dose-response and live imaging; format: cell-based, human; conditions: phLFs+TGFβ1+EDHB
Experimental: phLFs were cultured in DMEM F-12 medium with 20% fetal bovine serum (FBS) and antibiotic supplement as mentioned above. Cells were seeded with 6000 cells/well in 384-well CellCarrier plates (Perkin Elmer, Cat #6007550). Following overnight incubation, cells were starved in serum-reduced medium (1% FBS with 0.1 mM 2-phosphoascorbate (Sigma, Cat #49752)) for 24 h. Afterwards, cells were treated with TGFβ1 (1 ng/ml) or vehicle, and additionally small molecules or appropriate vehicle controls were added. […] Fluorescenceconjugation of the collagen type 1 antibody was done by using the AlexaFluor-555 Protein Labeling Kit (Invitrogen, Cat #A20174) according to manufacturer's instructions. […]
Following fixation, the automated imaging was achieved by using aconfocal laser scanning microscope (LSM710, Zeiss) with automated focus detection for three-dimensional image acquisition (1024 px×1024 px×9 px which equals a dimension of 1417 μm×1417 μm×16 μm). For post-acquisition analysis images were imported into IMARIS software (Bitplane) and volume detection or alternatively quantification of the mean fluorescence intensity, as well as Hoechst-stained cell nuclei were automatically counted by using Imaris' spot detection algorithm. […]

[2] = system: collagen I, collagen V, fibulin 1, fibronectin, αSMA protein in phLFs; test: Western blotting of ECM proteins and αSMA in phLFs (lysates and medium supernatants); format: cell-based, human
Experimental: Cells were scraped off the plastic dish directly into 200 μl ice-cold RIPA buffer containing 1× Roche complete mini protease inhibitor cocktail. After incubating the samples for 30 minutes on ice, insoluble material was removed by centrifugation at 14.000 g for 15 minutes at 4° C. and the supernatant was further processed. Samples were mixed with 50 mM Tris-HCl, pH 6.8, 100 mM DTT, 2% SDS, 1% bromphenol blue, and 10% glycerol, and proteins were separated using standard SDS-10% PAGE. For immunoblotting, proteins were transferred to PVDF (Millipore (Billerica, MA, (USA)), 0.45 μm or 0.2 μm) membranes, which were blocked with 5% milk in TBST (0.1% Tween 20 in TBS) and incubated with primary, followed by HRP-conjugated secondary antibodies over night at 4° C. and at room temperature for 1 hour, respectively. For immunoblotting the following primary antibodies were used: monoclonal mouse anticollagen type 5 (1 mg/mL) from […] (Cat #sc-166155), polyclonal rabbit anti-collagen type 3 (1 mg/mL) from Rockland (Cat #600-401-105), polyclonal rabbit anti-collagen type 1 (1 mg/mL) from Rockland (Cat #600-401-103-0.5), monoclonal mouse anti-fibulin 1 (1 mg/mL) from SantaCruz (Cat #sc-25281), polyclonal rabbit anti-fibronectin (1 mg/mL) from SantaCruz (Cat #sc-9068), and monoclonal mouse anti-p-actin-peroxidase (AC-15, Sigma, 1:10000). Goat anti-rabbit and goat anti-mouse IgG conjugated to horseradish peroxidase (Cell Signaling, 1:10000) were applied as secondary antibodies. CXCL/IL-8 concentrations were determined using Human IL-8/CXCL8 DuoSet ELISA (DY208-05) according to the manufacturer's protocol.

[3] = system: TGFβ1-induced fibulin-1 ECM deposition in primary human lung IPF-fibroblasts (phLFs); test: Assessing N23P activity in inhibiting ECM deposition in IPF-fibroblasts (fibulin-1 MFI); format: cell-based; conditions: Homo sapiens, 72 h, 10 μM, TGFβ1 1 ng/ml, MFI
Experimental: phLFs were cultured in DMEM F-12 medium with 20% fetal bovine serum (FBS) and antibiotic supplement as mentioned above. Cells were seeded with 6000 cells/well in 384-well CellCarrier plates (Perkin Elmer, Cat #6007550). Following overnight incubation, cells were starved in serum-reduced medium (1% FBS with 0.1 mM 2-phosphoascorbate (Sigma, Cat #49752)) for 24 h. Afterwards, cells were treated with TGFβ1 (1 ng/ml) or vehicle, and additionally small molecules or appropriate vehicle controls were added. After 72 h of incubation, medium was changed for starving medium with 1 μg/mL AlexaFluor-488 fluorophore conjugated anti-collagen-type-5 antibodies (SantaCruz, Clone C-5, Cat #sc-166155 AF488), 0.66 μg/mL AlexaFluor-555 fluorophore conjugated anti-collagen-type-1 antibodies (Rockland, Cat #600-401-103-0.1), and 1 μg/mL AlexaFluor-637 fluorophore conjugated anti-fibulin 1 antibodies (SantaCruz, Clone C-5, Cat #sc-25281 AF647) and 1 μg/mL Hoechst H33342 (Sigma). Fluorescenceconjugation of the collagen type 1 antibody was done by using the AlexaFluor-555 Protein Labeling Kit (Invitrogen, Cat #A20174) according to manufacturer's instructions. Labeling efficacy was controlled by photometrical means.
Following four hours of incubation, cells were washed three times with PBS and fixed with paraformaldehyde (PFA). For automated liquid handling in 384 well plates, an INTEGRA Assist Plus (INTEGRA, Zizers, Switzerland) equipped with an INTEGRA Viaflo 1I pipette (INTEGRA, Zizers, Switzerland, Cat #4642), 125 μL GripTips™ pipette tips (INTEGRA, Zizers, Switzerland, Cat #6464) and sterile reagent reservoirs (INTEGRA, Cat #4311) were applied. All automated pipetting steps with the INTEGRA Assist Plus were performed at 9.5 μL/s in order to ensure proper integrity and attachment of the deposited ECM to the culturing surface within the wells of the 384-well plates. During cell seeding the automated liquid handling was performed at 89.3 μL/s. Removal of liquids from the well-plates was done by manually inverting the plates.
Following fixation, the automated imaging was achieved by using aconfocal laser scanning microscope (LSM710, Zeiss) with automated focus detection for three-dimensional image acquisition (1024 px×1024 px×9 px which equals a dimension of 1417 μm×1417 μm×16 μm). For post-acquisition analysis images were imported into IMARIS software (Bitplane) and volume detection or alternatively quantification of the mean fluorescence intensity, as well as Hoechst-stained cell nuclei were automatically counted by using Imaris' spot detection algorithm.
Cells were seeded with 6000 cells/well in 384-well CellCarrier plates. After overnight incubation, cells were starved in serum-reduced medium (1% FBS with 0.1 mM 2-phosphoascorbate for 24 h). Then, phLFs were treated with TGFβ1 (1 ng/ml) or vehicle, and incubated together with synthesized N23Ps (10 μM) or appropriate vehicle controls. After 72 h of incubation, medium was changed for starvation medium with 1 μg/mL AlexaFluor-637 fluorophore conjugated anti-fibulin 1 antibodies (SantaCruz, Clone C-5, Cat #sc-25281 AF647) and 1 μg/mL Hoechst H33342 (Sigma). Following four hours of incubation, cells were washed three times with PBS and fixed with paraformaldehyde (PFA). Following fixation, the automated imaging was achieved by using a confocal laser scanning microscope (LSM710, Zeiss) with automated focus detection for three-dimensional image acquisition (1024 px×1024 px×9 px which equals a dimension of 1417 μm×1417 μm×16 μm). For post-acquisition analysis images were imported into IMARIS software (Bitplane) and quantified for the mean fluorescence intensity, as well as Hoechst-stained cell nuclei were automatically counted by using Imaris' spot detection algorithm.
Assessment of ECM inhibition I: Mean fluorescence intensity (MFI) values represented the degree of fibulin-1 ECM deposition in three different IPF-phLFs (n=3). […]

[4] = concomitant treatment with TGFβ1
[5] = one or two different IPF-phLFs (n=1-2)

CCOC(=O)c1ccc(O)c(O)c1 [EDHB, Ethyl-3,4-dihydroxy-benzoate]
ECM deposition of collagen I, collagen V and fibulin 1 [1]: inhibits the ECM deposition
expression of intracellular collagen I, collagen V and fibulin 1 [2, 4]: statistically significant suppression
secreted collagen I [2, 4]: significant suppression

COc1ccc(/C=C/C(=O)Nc2ccccc2OCCC2CC2)cc1 [Example 38, (E)-N-(2-(2-cyclopropylethoxy)phenyl)-3-(4-methoxyphenyl)acrylamide]
inhibition at 10 µM ([3]; three different IPF-phLFs (n=3)): > 90%

C#CCOc1ccc(/C=C/C(=O)Nc2ccccc2OCCC2(C)N=N2)cc1 [Example 167, (E)-N-(2-(2-(3-methyl-3H-diazirin-3-yl)ethoxy)phenyl)-3-(4-(prop-2-yn-1-yloxy)phenyl)acrylamide]
inhibition at 10 µM [3, 5]: 60 to 90%

C[C@H]1CCC/C=C/[C@@H]2C[C@H](O)C[C@H]2[C@H](O)/C=C/C(=O)O1 [BrefeldinA]
secretion of collagen I and fibronectin ([2]; medium supernatants of phLFs): inhibited the secretion

CCCCOc1ccccc1NC(=O)/C=C/c1ccc(S(C)(=O)=O)cc1 [Example 153, (E)-N-(2-butoxyphenyl)-3-(4-(methylsulfonyl)phenyl)acrylamide]
inhibition at 10 µM [3, 5]: > 90%
